Experimental data published in BigSolDB 2.1.

O=C1CCc2cc(OCCCCc3nnnn3C3CCCCC3)ccc2N1
solubility (mole fraction)
Conditions	in 1,4-dioxane	in 2-butanone	in acetone	in acetonitrile	in ethanol	in ethyl acetate	in isopropanol	in methanol	in n-butanol	in n-propanol
273.15 K	–	0.00289	0.00168	0.0003	0.000168	0.000115	8.4e-05	0.000258	0.000437	0.000206
278.15 K	–	0.00345	0.00206	0.000506	0.000282	0.000205	0.000155	0.00041	0.000656	0.000334
283.15 K	–	0.00399	0.00244	0.000705	0.000406	0.00031	0.000233	0.000573	0.000907	0.000487
288.15 K	0.00525	0.00464	0.00287	0.000935	0.00054	0.000428	0.000324	0.000754	0.00119	0.000634
293.15 K	0.0061	0.00529	0.00332	0.00119	0.00069	0.000556	0.000421	0.000955	0.0015	0.000813
298.15 K	0.00708	0.006	0.00381	0.00151	0.000847	0.000704	0.000543	0.00117	0.00184	0.00098
303.15 K	0.00819	0.00677	0.00433	0.00187	0.00102	0.000861	0.000683	0.00141	0.00222	0.00116
308.15 K	0.0095	0.00774	0.00487	0.00226	0.00122	0.00102	0.000833	0.00166	0.00263	0.00136
313.15 K	0.0112	0.00881	0.00557	0.00273	0.00144	0.00119	0.000981	0.00193	0.00307	0.0016
